Measured values published in paper PMC5120310, “In Silico Exploration for Novel Type-I Inhibitors of Tie-2/TEK: The Performance of Different Selection Strategy in Selecting Virtual Screening Candidates” (Scientific Reports, 2016).

Biological target: T1, recombinant human Tie-2 protein (Homo sapiens, UniProt Q02763)
T1 construct: purchased Thermo Fisher Scientific Inc. PV3628
T1 sequence (Q02763 23-1124): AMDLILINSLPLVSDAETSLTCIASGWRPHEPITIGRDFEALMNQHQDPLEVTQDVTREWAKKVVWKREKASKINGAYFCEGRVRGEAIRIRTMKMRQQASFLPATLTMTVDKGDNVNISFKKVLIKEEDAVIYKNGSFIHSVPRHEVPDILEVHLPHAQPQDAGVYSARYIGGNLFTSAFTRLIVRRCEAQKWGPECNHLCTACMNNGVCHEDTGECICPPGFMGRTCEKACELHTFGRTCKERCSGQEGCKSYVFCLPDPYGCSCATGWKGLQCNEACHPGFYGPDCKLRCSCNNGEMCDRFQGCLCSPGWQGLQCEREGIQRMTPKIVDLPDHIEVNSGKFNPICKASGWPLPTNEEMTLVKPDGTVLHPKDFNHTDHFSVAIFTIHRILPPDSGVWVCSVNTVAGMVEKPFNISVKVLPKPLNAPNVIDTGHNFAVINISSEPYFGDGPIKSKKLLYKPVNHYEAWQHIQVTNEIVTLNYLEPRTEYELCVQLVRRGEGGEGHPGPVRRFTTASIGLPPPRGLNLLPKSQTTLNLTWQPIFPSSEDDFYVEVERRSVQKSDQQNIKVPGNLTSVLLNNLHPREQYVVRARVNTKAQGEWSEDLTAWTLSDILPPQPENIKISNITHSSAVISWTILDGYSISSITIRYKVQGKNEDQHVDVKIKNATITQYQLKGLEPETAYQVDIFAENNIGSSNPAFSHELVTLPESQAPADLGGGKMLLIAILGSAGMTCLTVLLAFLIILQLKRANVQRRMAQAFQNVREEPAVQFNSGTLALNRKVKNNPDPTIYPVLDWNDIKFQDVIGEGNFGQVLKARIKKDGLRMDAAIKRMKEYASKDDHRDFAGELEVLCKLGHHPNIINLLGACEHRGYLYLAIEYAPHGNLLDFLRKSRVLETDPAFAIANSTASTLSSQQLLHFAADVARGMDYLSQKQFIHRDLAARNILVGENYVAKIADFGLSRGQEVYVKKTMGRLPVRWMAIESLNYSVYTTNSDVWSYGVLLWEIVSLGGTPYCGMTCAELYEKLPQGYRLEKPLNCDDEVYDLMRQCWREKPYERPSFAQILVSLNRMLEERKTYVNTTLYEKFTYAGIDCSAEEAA
Assay: Z′-Lyte FRET enzymatic activity assay of Tie-2 kinase
Type: biochemical
Conditions: 5 μg/mL, n ≥ 2
Method: In order to assess the biological inhibitory activity of the VS compounds, Z’-Lyte enzymatic activity assay based on FRET (Fluorescence Resonance Energy Transfer) technology was developed as described above. […] At first, all the compounds obtained from both filtering strategies were preliminary screened for their ability to inhibit Tie-2 kinase activity at the concentration of 10 μg/mL.
The Tie-2 kinase inhibitor (CAS#: 948557-43-5, purity ≥ 97%) was purchased from Merck Calbiochem (Darmstadt, Germany) and used as a positive control inhibitor in bioassays[40]. […] All the purchased screening compounds were firstly dissolved in dimethyl sulfoxide (DMSO) at a stock concentration of 5 mg/ml. The final working concentration of DMSO is less than 1%.
Compounds were tested for their ability to inhibit Tie-2 kinase activity using Z′-Lyte® kinase assay kit (ser/thr 5 peptide) with NUNC 384-well plate. In the first step, the test compounds and ATP solution were firstly prepared at 4 × desired concentration. The mixture of recombinant human Tie-2 protein and non-phosphorylated peptide at 2 × desired concentration was prepared in kinase reaction buffer A consisting of 50 mM HEPES (pH 7.5), 0.01% BRIJ-35, 10 mM MgCl2, 4 mM MnCl2, 1 mM EGTA and 2 mM DTT. Reactions were then carried out in a solution containing 2.5 μL test compounds, 5 μL Tie-2/Tyr 05 peptide mixture (10 ng Tie-2 and 2 μM Tyr 05 peptide) and 2.5 μL ATP (100 μM). Then, the assay plate was shaken for 30 seconds on a plate shaker, and incubated for 1 hour at room temperature (20~25 °C). After sufficient kinase reactions, 5 μL development reagent A was added to each well, and the plate was incubated for another hour. Finally, 5 μL stop reagent was added to terminate the reactions, and the coumarin and fluorescein emission signals (excitation: 400 nm; emission: 445 and 520 nm, respectively) were measured on a fluorescence plate reader (BioTek Synergy 4).
With `COc1ccc2cc(-c3nc(-c4ccc([S+](C)[O-])cc4)[nH]c3-c3ccncc3)ccc2c1` (stereo not drawn) [Tie-2 inhibitor, reference compound] the “Kinase Inhibition (%) at 5 μg/mL (± SD)” value was 93.01 ± 1.02%.

Same assay, conditions: 5 μg/mL, n ≥ 2; read-out: Kinase Inhibition (%) at 5 μg/mL (± SD)
Work on `O=C(NC(=S)Nc1ccc(NC(=O)c2ccc(Cl)cc2Cl)cc1)c1ccccc1` [TP-C3-1] yielded an inhibition at 5 µg/mL of 63 ± 0.86%. For `CC(C)(C)c1ccc(C(=O)Nc2ccc(NC(=S)NC(=O)c3ccccc3)cc2)cc1` [TP-C3-2], the inhibition at 5 µg/mL was 33.4 ± 1.74%. With `Cc1cccc(C(=O)Nc2ccc(NC(=S)NC(=O)c3ccccc3)cc2)c1` [TP-C3-3] the inhibition at 5 µg/mL was 67.3 ± 0.78%. In the case of `CCCOc1cccc(C(=O)NC(=S)Nc2ccc(NC(=O)c3ccccc3)cc2)c1` [TP-C3-14], the inhibition at 5 µg/mL is reported as 43 ± 1.08%. With `COc1ccc(C(=O)NC(=S)Nc2ccc(NC(=O)c3ccccc3)cc2)cc1[N+](=O)[O-]` [TP-C3-15] the inhibition at 5 µg/mL was 35.1 ± 0.63%. Molecule `COc1cc(NC(=S)NC(=O)c2ccc(C)cc2C)ccc1NC(=O)c1ccccc1Cl` [TP-C3-21] has an inhibition at 5 µg/mL of 71.19 ± 0.29%. Molecule `Cc1cc(NC(=S)NC(=O)c2ccc(C)c([N+](=O)[O-])c2)ccc1NC(=O)c1ccccc1` [TP-C3-26] has an inhibition at 5 µg/mL of 23.11 ± 0.13%. With `COc1ccc(Cl)cc1C(=O)NC(=S)Nc1ccc(NC(=O)c2ccccc2)c(C)c1` [TP-C3-27] the inhibition at 5 µg/mL was 47.9 ± 0.05%. For `Cc1cc(NC(=S)NC(=O)c2ccc(Cl)c(Cl)c2)ccc1NC(=O)c1ccccc1` [TP-C3-29], the inhibition at 5 µg/mL was 57.95 ± 0.29%. With `CCc1ccc(C(=O)NC(=S)Nc2ccc(NC(=O)c3cccc(Cl)c3)cc2)cc1` [TP-C3-43] the inhibition at 5 µg/mL was 77.74 ± 0.42%. For `Cc1cccc(C(=O)Nc2ccc(NC(=S)NC(=O)c3ccccc3Cl)cc2)c1` [TP-C3-45], the inhibition at 5 µg/mL was 49.3 ± 0.95%. For `CCCOc1ccc(C(=O)NC(=S)Nc2ccc(NC(=O)c3ccc(C(C)(C)C)cc3)cc2)cc1` [TP-C3-52], the inhibition at 5 µg/mL was 7.88 ± 0.59%. `CCc1ccc(C(=O)NC(=S)Nc2ccc(NC(=O)c3ccc(Cl)cc3Cl)cc2)cc1` [TP-C3-55] gave an inhibition at 5 µg/mL of 60.22 ± 0.55%.

Same assay, conditions: 10 μg/mL preliminary screening, Table S1
For `CCOc1cc(C2C(C(=O)OCCc3ccccc3)=C(C)NC3=C2C(=O)CCC3)ccc1O` (stereo not drawn) [TP-C2-4], the “Inhibition (%) @10 μg/ml” value was 69.77±2.75%. With `CCCOc1ccc(N2C(=O)CC(N(CCc3ccc(OC)cc3)C(=O)c3cccc(F)c3)C2=O)cc1` (stereo not drawn) [TP-C2-5] the “Inhibition (%) @10 μg/ml” value was 83.65±2.57%. With `CCOc1ccc(CN(CCc2ccc3c(c2)OCO3)Cc2ccc(C(F)(F)F)cc2)cc1` [TP-C2-6] the “Inhibition (%) @10 μg/ml” value was 49.69±0.95%. In the case of `Cc1cc(NC(=S)NC(=O)c2ccccc2C)ccc1NC(=O)c1ccccc1` [TP-C2-7], the “Inhibition (%) @10 μg/ml” value is reported as 54.53±0.58%. For `COc1ccc(C(=O)NC(=S)Nc2ccc(-c3nc4cc(C)c(C)cc4o3)cc2)cc1OC` [TP-C2-8], the “Inhibition (%) @10 μg/ml” value was 68.53±6.25%. With `COc1ccc(C(=O)NC(=S)Nc2ccc(NC(=O)c3cccc(C)c3)cc2)cc1OC` [TP-C2-9] the inhibition at 10 µg/mL was 81.6 ± 2.85%. In the case of `O=C(NC(=S)Nc1ccc(-c2nc3ccccc3o2)c(O)c1)c1cccc(Br)c1` [TP-C2-10], the “Inhibition (%) @10 μg/ml” value is reported as 46.26±3.21%. In the case of `COc1cc(NC(=S)NC(=O)c2ccccc2OC)ccc1NC(=O)c1cc2ccccc2o1` [TP-C2-11], the “Inhibition (%) @10 μg/ml” value is reported as 87.61±5.43%. With `Cc1ccc2nc(-c3ccc(NC(=S)NC(=O)c4oc5ccccc5c4C)cc3)oc2c1` [TP-C2-12] the “Inhibition (%) @10 μg/ml” value was 85.54±0.14%. For `CC1(C)CC(=O)C(C(=S)Nc2ccccc2)=C(NCc2ccc3c(c2)OCO3)C1` [TP-C2-13], the “Inhibition (%) @10 μg/ml” value was 84.95±3.24%. For `COc1ccc(OC)c(Nc2nc(-c3cccc(NC(=O)c4ccccc4)c3)cs2)c1` [TP-C2-14], the “Inhibition (%) @10 μg/ml” value was 71.64±2.92%. With `O=C(Nc1ccc(NC(=S)NC(=O)c2cccc3ccccc23)cc1)c1cccs1` [TP-C2-15] the “Inhibition (%) @10 μg/ml” value was 72.64±14.95%. With `Cc1c(C(=O)NC(=S)Nc2ccc(-c3nc4ccccc4s3)cc2)oc2ccccc12` [TP-C2-16] the “Inhibition (%) @10 μg/ml” value was 84.1±0.44%. In the case of `CCc1cc2c(-c3ccccc3)cc(=O)oc2cc1OCC(=O)c1ccc(F)cc1` [TP-C2-18], the “Inhibition (%) @10 μg/ml” value is reported as 43.81±7.48%. With `Cc1ccccc1OCC(=O)OCC(=O)c1ccc(OCc2ccccc2)cc1` [TP-C2-20] the “Inhibition (%) @10 μg/ml” value was 36.45±0.94%. For `O=C(OCC(=O)c1ccccc1Cl)c1ccc2c(c1)-c1ccccc1C2=O` [TP-C2-21], the “Inhibition (%) @10 μg/ml” value was 75.19±7.09%. In the case of `CC(=O)c1c(C)cc(C)c(CSc2ccccn2)c1C` [TP-C2-22], the “Inhibition (%) @10 μg/ml” value is reported as 90.2±6.92%. With `COc1ccc(C(CC(=O)c2ccccc2)CC(=O)c2ccccc2)cc1OC` [TP-C2-23] the “Inhibition (%) @10 μg/ml” value was 47.13±8.4%. For `COc1ccc2cc(-c3nc(-c4ccc([S+](C)[O-])cc4)[nH]c3-c3ccncc3)ccc2c1` (stereo not drawn) [Tie-2 inhibitor, reference compound], the “Inhibition (%) @10 μg/ml” value was 95.2±1.58%.

Same assay, conditions: Z′-Lyte assay, 100 μM ATP, n ≥ 2 per concentration; read-out: IC50 (half-maximal inhibitory concentration), Tie-2 kinase
Molecule `CCCOc1ccc(N2C(=O)CC(N(CCc3ccc(OC)cc3)C(=O)c3cccc(F)c3)C2=O)cc1` (stereo not drawn) [TP-C2-5] has an IC50 of 13.8 ± 1.02 µM. For `COc1ccc(C(=O)NC(=S)Nc2ccc(NC(=O)c3cccc(C)c3)cc2)cc1OC` [TP-C2-9], the IC50 was 1.86 ± 0.18 µM. For `COc1cc(NC(=S)NC(=O)c2ccccc2OC)ccc1NC(=O)c1cc2ccccc2o1` [TP-C2-11], the IC50 was 15.1 ± 0.92 µM. `Cc1ccc2nc(-c3ccc(NC(=S)NC(=O)c4oc5ccccc5c4C)cc3)oc2c1` [TP-C2-12] gave an IC50 of 14.6 ± 1.21 µM. For `CC1(C)CC(=O)C(C(=S)Nc2ccccc2)=C(NCc2ccc3c(c2)OCO3)C1` [TP-C2-13], the IC50 was 6.78 ± 0.36 µM. In the case of `Cc1c(C(=O)NC(=S)Nc2ccc(-c3nc4ccccc4s3)cc2)oc2ccccc12` [TP-C2-16], the IC50 is reported as 8.83 ± 0.58 µM. With `CC(=O)c1c(C)cc(C)c(CSc2ccccn2)c1C` [TP-C2-22] the IC50 was 8.44 ± 0.93 µM. With `O=C(NC(=S)Nc1ccc(NC(=O)c2ccc(Cl)cc2Cl)cc1)c1ccccc1` [TP-C3-1] the IC50 was 1.85 µM. Molecule `CC(C)(C)c1ccc(C(=O)Nc2ccc(NC(=S)NC(=O)c3ccccc3)cc2)cc1` [TP-C3-2] has an IC50 of 27.1 µM. `Cc1cccc(C(=O)Nc2ccc(NC(=S)NC(=O)c3ccccc3)cc2)c1` [TP-C3-3] gave an IC50 of 2.82 µM. `CCCOc1cccc(C(=O)NC(=S)Nc2ccc(NC(=O)c3ccccc3)cc2)c1` [TP-C3-14] gave an IC50 of 22.7 µM. In the case of `COc1ccc(C(=O)NC(=S)Nc2ccc(NC(=O)c3ccccc3)cc2)cc1[N+](=O)[O-]` [TP-C3-15], the IC50 is reported as 13.8 µM. With `COc1cc(NC(=S)NC(=O)c2ccc(C)cc2C)ccc1NC(=O)c1ccccc1Cl` [TP-C3-21] the IC50 was 2.74 µM. Work on `Cc1cc(NC(=S)NC(=O)c2ccc(C)c([N+](=O)[O-])c2)ccc1NC(=O)c1ccccc1` [TP-C3-26] yielded an IC50 of 48.6 µM. `COc1ccc(Cl)cc1C(=O)NC(=S)Nc1ccc(NC(=O)c2ccccc2)c(C)c1` [TP-C3-27] showed an IC50 of 19.8 µM. For `Cc1cc(NC(=S)NC(=O)c2ccc(Cl)c(Cl)c2)ccc1NC(=O)c1ccccc1` [TP-C3-29], the IC50 was 28.2 µM. For `CCc1ccc(C(=O)NC(=S)Nc2ccc(NC(=O)c3cccc(Cl)c3)cc2)cc1` [TP-C3-43], the IC50 was 1.64 µM. Work on `Cc1cccc(C(=O)Nc2ccc(NC(=S)NC(=O)c3ccccc3Cl)cc2)c1` [TP-C3-45] yielded an IC50 of 2.41 µM. For `CCCOc1ccc(C(=O)NC(=S)Nc2ccc(NC(=O)c3ccc(C(C)(C)C)cc3)cc2)cc1` [TP-C3-52], the IC50 was 36.7 µM. Work on `CCc1ccc(C(=O)NC(=S)Nc2ccc(NC(=O)c3ccc(Cl)cc3Cl)cc2)cc1` [TP-C3-55] yielded an IC50 of 3.47 µM.

Same assay, conditions: from IC50 values
With `CC(C)(C)c1ccc(C(=O)Nc2ccc(NC(=S)NC(=O)c3ccccc3)cc2)cc1` [TP-C3-2] the “fold decrease in activity compared with compound TP-C3-3” value was ~ 10 fold. In the case of `COc1ccc(C(=O)NC(=S)Nc2ccc(NC(=O)c3ccccc3)cc2)cc1[N+](=O)[O-]` [TP-C3-15], the “fold decline in activity compared to TP-C2-9” value is reported as ~ 10 fold.

Same assay, conditions: in the dose-response figure; read-out: IC50 (dose-dependent inhibitory effect), Tie-2 kinase (converted)
For `COc1ccc(C(=O)NC(=S)Nc2ccc(NC(=O)c3cccc(C)c3)cc2)cc1OC` [TP-C2-9], the IC50 was 1.87 µM.

Tested on: Tie-2
Assay: not given
Design: method as in PMID 17618114
Conditions: tool inhibitor; read-out: IC50 against Tie-2, previously reported; cited from earlier work
In the case of `COc1ccc2cc(-c3nc(-c4ccc([S+](C)[O-])cc4)[nH]c3-c3ccncc3)ccc2c1` (stereo not drawn) [Tie-2 inhibitor, reference compound], the IC50 is given as 0.25 µM.
